Test results taken from paper PMC9074039, “Molecular analysis and essentiality of Aro1 shikimate biosynthesis multi-enzyme in Candida albicans” (Life Science Alliance, 2022).

Legend:
Aro1DHQS = target: T1, Aro1DHQS (Candida albicans, UniProt Q5AME2); experiment: X-ray crystal structure, […] A; format: binding; conditions: co-crystallised with 2 mM NADH and 0.5 mM ZnCl2; one NADH per chain
T1 construct: gene ARO1; N-terminal DHQS domain, residues 1-387, expressed in E. coli BL21(DE3) Gold, His6-TEV tag cut; dimer in crystal; strain SC5314 printed for the full-length clone pLC1335

Aro1EPSPS = target: T2, Aro1EPSPS (Candida albicans, UniProt Q5AME2); experiment: X-ray crystal structure, […] A; format: binding; conditions: co-crystallised with 1 mM shikimate-3-phosphate, pH 8; closed conformation
T2 construct: gene ARO1; EPSPS domain, residues 387-844, expressed in E. coli BL21(DE3) Gold, His6-TEV tag cut; strain SC5314 printed for the full-length clone pLC1335
T2 sequence (Q5AME2 387-844): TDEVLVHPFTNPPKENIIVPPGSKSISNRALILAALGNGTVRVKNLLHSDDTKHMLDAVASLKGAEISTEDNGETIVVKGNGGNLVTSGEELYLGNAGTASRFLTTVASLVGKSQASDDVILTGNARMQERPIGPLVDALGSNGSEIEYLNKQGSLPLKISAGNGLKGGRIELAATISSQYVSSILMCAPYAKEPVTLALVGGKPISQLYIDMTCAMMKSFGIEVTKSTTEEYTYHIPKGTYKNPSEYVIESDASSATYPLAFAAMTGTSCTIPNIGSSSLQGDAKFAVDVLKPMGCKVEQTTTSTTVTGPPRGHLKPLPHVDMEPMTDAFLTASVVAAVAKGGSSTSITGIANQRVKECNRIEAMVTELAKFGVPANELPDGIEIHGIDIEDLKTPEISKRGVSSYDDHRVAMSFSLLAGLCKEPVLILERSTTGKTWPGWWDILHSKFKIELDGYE

T1 sequence (Q5AME2 1-387): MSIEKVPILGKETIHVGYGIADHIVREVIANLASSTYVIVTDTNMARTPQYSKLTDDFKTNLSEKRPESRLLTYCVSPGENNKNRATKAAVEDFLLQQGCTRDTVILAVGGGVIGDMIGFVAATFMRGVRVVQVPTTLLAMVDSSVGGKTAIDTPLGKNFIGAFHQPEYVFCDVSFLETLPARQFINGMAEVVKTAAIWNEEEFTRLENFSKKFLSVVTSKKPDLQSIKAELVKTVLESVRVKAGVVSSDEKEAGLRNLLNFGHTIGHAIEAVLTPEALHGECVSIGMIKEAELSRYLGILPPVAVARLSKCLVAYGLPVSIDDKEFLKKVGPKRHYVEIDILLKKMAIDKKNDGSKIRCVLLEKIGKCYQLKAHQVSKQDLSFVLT

Question: With `NC(=O)C1=CN([C@@H]2O[C@H](COP(=O)(O)OP(=O)(O)OC[C@H]3O[C@@H](n4cnc5c(N)ncnc54)[C@H](O)[C@@H]3O)[C@@H](O)[C@H]2O)C=CC1` [NADH] as the compound, how does the “X-ray crystal structure, 1.85 A” value (Aro1DHQS) read?
Answer: one NADH molecule bound to each copy of this fragment

Question: With `O=C(O)C1=C[C@@H](OP(=O)(O)O)[C@@H](O)[C@H](O)C1` [S3P, shikimate-3-phosphate] as the compound, how does the “X-ray crystal structure, 1.85 A” value (Aro1EPSPS) read?
Answer: additional electron density corresponding to a molecule of this substrate in the cleft
